# According to patent US10294202B2, “Pyrrolidinones as herbicides” (FMC Corporation, priority 2013, dated 2019):
# How the values were obtained:
# pigweed = test: Test A pre-/postemergence herbicide test; assay type: in vivo, Amaranthus retroflexus; settings: for Pigweed plant response rating: Preemergence, visual rating on 0 to 100 scale (0 no effect, 100 complete control)
# Method in brief: (§1)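 Formulated compound (non-phytotoxic solvent, surfactant) sprayed pre- onto soil of seeded loam/sand pots or post- onto seedlings at 1–2 leaves; ~10 d greenhouse; 0–100 visual control rating versus untreated.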
# oilseed rape = test: Test C pre-/postemergence herbicide test; assay type: in vivo, Brassica napus
# Method in brief: (§2)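 Compound solutions contained surfactant in a non-phytotoxic solvent. These were sprayed onto pots of loam/sand sown with seeds, and onto young plants (2 to 18 cm, 1- to 4-leaf) in sphagnum peat–vermiculite mix. Visual injury scores (0 none, 100 complete control) were recorded after 13 to 15 days.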
# oat, wild = test: Test C pre-/postemergence herbicide test; assay type: in vivo, Avena fatua
# Method in brief: as §2
# morningglory = test: Test C pre-/postemergence herbicide test; assay type: in vivo, Ipomoea coccinea; settings: for Morningglory plant response rating: scale 0 to 100, 0 is no effect and 100 is complete control
# Method in brief: as §2
# wheat (winter wheat) = test: Test C pre-/postemergence herbicide test; assay type: in vivo, Triticum aestivum; settings: for Wheat plant response rating: scale 0 to 100, 0 is no effect and 100 is complete control
# Method in brief: as §2
# sedge, umbrella = test: Test B flooded paddy test; assay type: in vivo, Cyperus difformis; settings: Flood, scale of 0 to 100 where 0 is no effect and 100 is complete control
# Method in brief: (§3)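 Scoring: visual, compared with untreated controls, 0 = no effect through 100 = complete control, taken 13 to 15 days after treatment in the greenhouse. Compounds had been added to paddy water over soil flooded 3 cm deep at the plants' 2-leaf stage.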
# corn = test: Test A pre-/postemergence herbicide test; assay type: in vivo, Zea mays
# Method in brief: as §1
# rice = test: Test B flooded paddy test; assay type: in vivo, Oryza sativa; settings: Flood, scale of 0 to 100 where 0 is no effect and 100 is complete control
# Method in brief: as §3
# waterhemp = test: Test C pre-/postemergence herbicide test; assay type: in vivo, Amaranthus rudis
# Method in brief: as §2
# wheat = test: Test A pre-/postemergence herbicide test; assay type: in vivo, Triticum aestivum
# Method in brief: as §1
# barnyardgrass = test: Test B flooded paddy test; assay type: in vivo, Echinochloa crus-galli; settings: Flood, scale of 0 to 100 where 0 is no effect and 100 is complete control
# Method in brief: as §3
# ragweed = test: Test C pre-/postemergence herbicide test; assay type: in vivo, Ambrosia elatior; settings: for Ragweed plant response rating: scale 0 to 100, 0 is no effect and 100 is complete control
# Method in brief: as §2
# [1] = Postemergence, 1000 g ai/ha, 0 to 100 scale (0 no effect, 100 complete control)
# [2] = preemergence, 1000 g ai/ha, 0 to 100 scale
# [3] = Postemergence, 31 g ai/ha, scale 0 (no effect) to 100 (complete control)
# [4] = Postemergence, 62 g ai/ha, scale 0 to 100 (0 no effect, 100 complete control)
# [5] = Postemergence, 125 g ai/ha, scale 0 to 100 (0 no effect, 100 complete control)
# [6] = Postemergence, 250 g ai/ha, scale 0 to 100 (0 no effect, 100 complete control)
# [7] = Postemergence, 125 g ai/ha, 0 to 100 scale, 0 no effect, 100 complete control
# [8] = Postemergence, 500 g ai/ha, 0 to 100 scale (0 no effect, 100 complete control)
# [9] = preemergence, 500 g ai/ha, 0 to 100 scale
# [10] = Preemergence, 31 g ai/ha, scale 0 to 100, 0 is no effect and 100 is complete control
# [11] = Preemergence, 62 g ai/ha, scale 0 to 100
# [12] = Preemergence, 125 g ai/ha, scale 0 to 100 (0 no effect, 100 complete control)
# [13] = Preemergence, 125 g ai/ha, visual rating on 0 to 100 scale (0 no effect, 100 complete control)
smiles,measurement,setting,value
Cc1c(F)cccc1NC(=O)C1C(=O)NCC1c1ccc(F)c(F)c1 (racemic) [Compound 106],"Plant response rating, Pigweed",pigweed; [1],0
same,"Plant response rating, Pigweed",pigweed; [2],0
same,"Plant response rating, Oilseed Rape",oilseed rape; [3],0
same,"Plant response rating, Oilseed Rape",oilseed rape; [4],0
same,"Plant response rating, Oilseed Rape",oilseed rape; [5],0
same,"Plant response rating, Oilseed Rape",oilseed rape; [6],0
same,"Plant response rating, Oat, Wild","oat, wild; [3]",0
same,"Plant response rating, Oat, Wild","oat, wild; [4]",0
same,"Plant response rating, Oat, Wild","oat, wild; [5]",0
same,"Plant response rating, Oat, Wild","oat, wild; [6]",0
same,"Plant response rating, Morningglory",morningglory; [3],0
same,"Plant response rating, Morningglory",morningglory; [4],5
same,"Plant response rating, Morningglory",morningglory; [5],10
same,"Plant response rating, Morningglory",morningglory; [6],5
same,"Plant response rating, Wheat",wheat (winter wheat); [3],0
same,"Plant response rating, Wheat",wheat (winter wheat); [4],0
same,"Plant response rating, Wheat",wheat (winter wheat); [5],0
same,"Plant response rating, Wheat",wheat (winter wheat); [6],0
same,"Plant response rating, Sedge, Umbrella","sedge, umbrella; 1000 g ai/ha",0
same,"Plant response rating, Corn",corn; [1],50
same,"Plant response rating, Corn",corn; [2],30
same,"Plant response rating, Rice",rice; 1000 g ai/ha,15
same,"Plant response rating, Waterhemp",waterhemp; [3],0
same,"Plant response rating, Waterhemp",waterhemp; [4],0
same,"Plant response rating, Waterhemp",waterhemp; [5],10
same,"Plant response rating, Waterhemp",waterhemp; [6],20
same,"Plant response rating, Wheat",wheat; [1],30
same,"Plant response rating, Wheat",wheat; [2],50
same,"Plant response rating, Barnyardgrass",barnyardgrass; 1000 g ai/ha,60
same,"Plant response rating, Ragweed",ragweed; [3],25
same,"Plant response rating, Ragweed",ragweed; [4],0
same,"Plant response rating, Ragweed",ragweed; [5],0
same,"Plant response rating, Ragweed",ragweed; [6],5
Cc1ccccc1NC(=O)C1C(=O)NCC1c1cccc(C(F)(F)F)c1 (racemic) [Compound 109],"Plant response rating, Pigweed",pigweed; [7],0
same,"Plant response rating, Pigweed",pigweed; [8],0
same,Pigweed plant response rating,pigweed; 125 g ai/ha,0
same,"Plant response rating, Pigweed",pigweed; [9],0
same,"Plant response rating, Oilseed Rape",oilseed rape; [3],0
same,"Plant response rating, Oilseed Rape",oilseed rape; [4],0
same,"Plant response rating, Oilseed Rape",oilseed rape; [5],5
same,"Plant response rating, Oilseed Rape",oilseed rape; [6],5
same,Oilseed Rape plant response rating,oilseed rape; [10],0
same,"Plant response rating, Oilseed Rape",oilseed rape; [11],0
same,"Plant response rating, Oilseed Rape",oilseed rape; [12],5
same,"Plant response rating (scale of 0 to 100), Oilseed Rape","oilseed rape; Preemergence, 250 g ai/ha",40
same,"Plant response rating, Oat, Wild","oat, wild; [3]",0
same,"Plant response rating, Oat, Wild","oat, wild; [4]",0
same,"Plant response rating, Oat, Wild","oat, wild; [5]",0
same,"Plant response rating, Oat, Wild","oat, wild; [6]",0
same,"Plant response rating, Morningglory",morningglory; [3],20
same,"Plant response rating, Morningglory",morningglory; [4],0
same,"Plant response rating, Morningglory",morningglory; [5],5
same,"Plant response rating, Morningglory",morningglory; [6],15
same,Morningglory plant response rating,"morningglory; Preemergence, 31 g ai/ha",0
same,"Plant response rating, Morningglory",morningglory; [11],0
same,"Plant response rating, Morningglory",morningglory; [12],5
same,"Plant response rating (scale of 0 to 100), Morningglory","morningglory; Preemergence, 250 g ai/ha",30
same,"Plant response rating, Wheat",wheat (winter wheat); [3],0
same,"Plant response rating, Wheat",wheat (winter wheat); [4],0
same,"Plant response rating, Wheat",wheat (winter wheat); [5],0
same,"Plant response rating, Wheat",wheat (winter wheat); [6],0
same,Wheat plant response rating,"wheat (winter wheat); Preemergence, 31 g ai/ha",0
same,"Plant response rating, Wheat",wheat (winter wheat); [11],10
same,"Plant response rating, Wheat",wheat (winter wheat); [12],50
same,"Plant response rating (scale of 0 to 100), Wheat","wheat (winter wheat); Preemergence, 250 g ai/ha",85
same,"Plant response rating, Sedge, Umbrella","sedge, umbrella; 1000 g ai/ha",80
same,"Plant response rating, Corn",corn; [7],50
same,"Plant response rating, Corn",corn; [8],80
same,"Plant response rating, Rice",rice; 1000 g ai/ha,0
same,"Plant response rating, Waterhemp",waterhemp; [3],0
same,"Plant response rating, Waterhemp",waterhemp; [4],0
same,"Plant response rating, Waterhemp",waterhemp; [5],0
same,"Plant response rating, Waterhemp",waterhemp; [6],0
same,Waterhemp plant response rating,waterhemp; [10],0
same,"Plant response rating, Waterhemp",waterhemp; [11],50
same,"Plant response rating, Waterhemp",waterhemp; [12],0
same,"Plant response rating (scale of 0 to 100), Waterhemp","waterhemp; Preemergence, 250 g ai/ha",20
same,"Plant response rating, Wheat",wheat; [7],20
same,"Plant response rating, Wheat",wheat; [8],60
same,"Plant response rating, Barnyardgrass",barnyardgrass; 1000 g ai/ha,0
same,"Plant response rating, Ragweed",ragweed; [3],0
same,"Plant response rating, Ragweed",ragweed; [4],0
same,"Plant response rating, Ragweed",ragweed; [5],0
same,"Plant response rating, Ragweed",ragweed; [6],5
same,Ragweed plant response rating,"ragweed; Preemergence, 31 g ai/ha",0
same,"Plant response rating, Ragweed",ragweed; [11],0
same,"Plant response rating, Ragweed",ragweed; [12],0
same,"Plant response rating (scale of 0 to 100), Ragweed","ragweed; Preemergence, 250 g ai/ha",10
O=C1NCC(c2cccc(OC(F)(F)F)c2)C1C(=O)Nc1ccccc1F (stereo not drawn) [Compound 69],"Plant response rating, Pigweed",pigweed; [7],20
same,"Plant response rating, Pigweed",pigweed; [8],30
same,Pigweed plant response rating,pigweed; 125 g ai/ha,0
same,"Plant response rating, Pigweed",pigweed; [9],20
same,"Plant response rating, Oat, Wild","oat, wild; [11]",0
same,"Plant response rating, Oat, Wild","oat, wild; [12]",5
same,"Plant response rating (scale of 0 to 100), Oat, Wild","oat, wild; Preemergence, 250 g ai/ha",5
same,Morningglory plant response rating,"morningglory; Preemergence, 31 g ai/ha",20
same,"Plant response rating, Morningglory",morningglory; [12],25
same,"Plant response rating (scale of 0 to 100), Morningglory","morningglory; Preemergence, 250 g ai/ha",25
same,Wheat plant response rating,"wheat (winter wheat); Preemergence, 31 g ai/ha",0
same,"Plant response rating, Wheat",wheat (winter wheat); [11],0
same,"Plant response rating, Wheat",wheat (winter wheat); [12],5
same,"Plant response rating (scale of 0 to 100), Wheat","wheat (winter wheat); Preemergence, 250 g ai/ha",5
same,"Plant response rating, Sedge, Umbrella","sedge, umbrella; 250 g ai/ha",65
same,"Plant response rating, Corn",corn; [7],20
same,"Plant response rating, Corn",corn; [8],90
same,Corn plant response rating,corn; [13],0
same,"Plant response rating, Corn",corn; [9],0
same,"Plant response rating, Rice",rice; 250 g ai/ha,30
same,"Plant response rating, Wheat",wheat; [7],0
same,"Plant response rating, Wheat",wheat; [8],40
same,Wheat plant response rating,wheat; [13],0
same,"Plant response rating, Wheat",wheat; [9],20
same,"Plant response rating, Barnyardgrass",barnyardgrass; 250 g ai/ha,40
same,Ragweed plant response rating,"ragweed; Preemergence, 31 g ai/ha",0
same,"Plant response rating, Ragweed",ragweed; [11],0
same,"Plant response rating, Ragweed",ragweed; [12],0
same,"Plant response rating (scale of 0 to 100), Ragweed","ragweed; Preemergence, 250 g ai/ha",20
